Source: PMC6063804 (EJNMMI Research, 2018)
Values joined by “and” are separate entries in the source; they are usually repeats but may differ in a detail not shown here. Equal entries are not always repeated. Where two headings read alike, the source gives them in different places.

Tests used:
[1] = cited from earlier work
[2] = ex vivo rodent, cited from earlier work
[3] = type: in vivo, human; settings: for activity that could not be extracted / mean parent fraction: plasma; for mean parent fraction: all 20 scans
Method: All subjects received a radial artery cannula for continuous and manual arterial sampling. For each scan, an arterial input function was obtained using an on-line blood sampler (Veenstra Instruments, Joure, The Netherlands) with a withdrawal rate of 5 mL · min^−1 during the first 5 min and 2.5 mL · min^−1 from 5 to 60 min post injection (p.i.) in order to stay within blood volume sampling constraints. Continuous blood withdrawal was interrupted briefly to manually collect arterial blood samples (10 mL each) at set timepoints (5, 10, 20, 40, 60, 75, 90, 120 min p.i.). In several subjects, an arterial sample was taken immediately before PET and incubated with [^18F]PK-209 at 37 °C to compare radioactivity recovery fractions throughout the 120 min with extracted fractions of the arterial samples taken during PET. The samples were used to measure blood and plasma radioactivity concentrations, whole blood-to-plasma ratios, and plasma metabolite fractions of [^18F]PK-209. For the latter purpose, samples were analyzed using solid-phase extraction combined with HPLC using off-line radioactivity detection.
The final arterial plasma input function was derived using both continuous and discrete arterial blood data. The input function was corrected for plasma to whole blood ratio, metabolites, and time delay. For each scan, two additional plasma input functions were generated to investigate the effect of within-subject and between-subject variability in plasma data. For the within-subject averaged input function, the mean of PET1 and PET2 [^18F]PK-209 parent fractions per subject were used at each of the eight sample timepoints for both scans. For the population-averaged input function, the mean parent fractions for all five subjects in the TRT and ketamine groups (i.e., 10 scans) were taken at each timepoint. The manual arterial blood samples were also used for assessment of the plasma ketamine concentration. The area under the ketamine concentration–time curve was estimated by means of the trapezoidal rule.
The absolute percentage TRT variability of kinetic parameters between test and retest scans was calculated using the equation TRT variability = 2 · (ρretest − ρtest)/(ρtest + ρretest) · 100, where ρ is the kinetic parameter of interest. The between-subject coefficient of variation was calculated as the standard deviation divided by the sample mean · 100. […] SUV from 90 to 120 min (SUV90–120) was calculated as the mean of the last three mid-frame SUV values.

ion channel of NMDA-R [4] = tested on: ion channel of NMDA-R; set-up: method as in PMID 25451213; settings: cited from earlier work
NMDA-R = settings: cited from earlier work
ion channel of NMDA-R [5] = target: ion channel of NMDA-R; set-up: method as in PMID 25648682; settings: preclinical; read-out: apparent affinity against [^3H]MK-801 (Ki); cited from earlier work

Compound: CSc1ccc(Cl)c(NC(=N)N(C)c2cccc(OC[18F])c2)c1 [[^18F]PK-209, 3-(2-chloro-5-(methylthio)phenyl)-1-(3-([^18F]fluoromethoxy)phenyl)-1-methylguanidine]
- LogDoct,7.4 [1]: 1.45
- non-polar metabolite fraction in brain ([2]; 15 min p.i.): 18%
- non-polar metabolite fraction in brain ([2]; 60 min p.i.): 25%
- polar metabolites, contribution to total brain radioactivity ([2]; 60 min p.i.): 4%
- difference in mean blood-to-plasma ratios between test–retest and between baseline–ketamine scans ([3]; all eight measured timepoints): < 3%
- peak radioactivity concentration in plasma, mean SUV ([3]; arterial plasma): 17.4 ± 2.8
- plasma radioactivity as % of the peak ([3]; at 3 min): ~ 7%
- fractional recovery of radioactivity from plasma ([3]; declined over time, stabilizing): approximately 45%
- activity that could not be extracted ([3]; 5 min p.i.): 15 ± 3%
- activity that could not be extracted ([3]; 120 min p.i.): 54 ± 4%
- mean parent fraction ([3]; 5 min p.i.): 77 ± 7%
- mean parent fraction ([3]; 10 min p.i.): 57 ± 9% and 57%
- mean parent fraction ([3]; 20 min p.i.): 34 ± 5% and 34%
- mean parent fraction ([3]; 60 min p.i.): 19 ± 3%
- mean parent fraction ([3]; 120 min p.i.): 14 ± 3%
- parent fractions in baseline scans lower than the test–retest group ([3]; subjects 6 to 10, average): 16%
- selectivity for the ion channel of NMDA-R over other targets (ion channel of NMDA-R [4]): high selectivity
- reduction in mean SUVAUC after MK-801 administration (NMDA-R; non-human primate): 15%
- volume of distribution (VT) compared with baseline (NMDA-R; rhesus monkeys, IV 0.3 mg ∙ kg^−1 MK-801 30 min before PET): reduced the volume of distribution (VT) compared with baseline in two out of three subjects
- retention in NMDA-R-rich cortical regions relative to the cerebellum (NMDA-R; rhesus monkeys): prolonged retention
- K i (ion channel of NMDA-R [5]): 18 nM
